The values below come from BindingDB's records for doi:10.1016/s0960-894x(00)00033-0 (Albany Molecular Research, 2000).

“And” between values parts separate entries of the source, which are not always exact repeats. Identical values can stand only once. Counter-ions that a name gives are not always drawn.

The nature of assay [1]: Binding affinity against Opioid receptor kappa 1 of calf cortex using [3H]-U-69,593 as radioligand.
Experiment in assay [2]: as above
This is another data set of the same source.

Assay [3] in a line: Binding affinity against Opioid receptor delta 1 of calf cortex using […] as radioligand.

`COCCC1CC2CN3CCc4c([nH]c5ccccc45)C(C(=O)OC)(C2)C13` (stereo not drawn) [(-)-18-Methoxycoronaridine hydrochloride]: the Ki in assay [1] is 5.5 µM and 5.1 µM; in assay [2] it was 4.8 µM; in assay [3] it was 3.5 µM.

The term Ki denotes the equilibrium dissociation constant of an inhibitor or competing ligand from its target. Read a low Ki as a stronger hold on the target.
